Data from patent US4287206A, “Halogen derivatives of 8-hydroxycarboxylic acids; the processes for their preparation and medicaments in which they are present” (priority 1978, dated 1981).
Where a name gives a salt, the structure may show the parent alone. Read-outs that look alike come from different tables or passages of the source.

Key:
mice [1] = test: Motor activity in mice (activity meters with photoelectric cells); type: in vivo; details: comparison of isomers; 32 mg/kg orally; in particular stimulant action
Experimental: The motor activity was determined with the aid of activity meters having photoelectric cells (Boissier and Simon, Arch. int. Pharmacodyn. 1965, 158, 212-221). A minimum of 10 animals was always used per batch.
The mice are placed in the activity meter just after the oral or intraperitoneal administration of the product acccording to the invention, obtained in accordance with Example I. The motor activity is measured as from the introduction into the activity meter up to the 60th minute. The counters are read after 30 minutes, then reset to 0 and read every 10 minutes for 30 minutes.

rats [2] = test: Influence of alpha-methyltyrosine on the stereotypies caused in rats; type: in vivo; details: alpha-methyltyrosine 64 mg.kg^-1 i.p. 150 min before Example III 8 mg.kg^-1 i.p.
Experimental: (§1) The tests were carried out on batches of 6 rats for each dose; immediately after the oral or intraperitoneal administration, the animals are placed in individual, transparent plastic 20×10×10 cm boxes provided with a pierced stainless steel lid. The stereotyped movements are rated from 0 to 3, in accordance with the method described by Simon and Chermat (J. Pharmacol. (Paris), 1972, 3, 235-238) every 10 minutes until they disappear in all the animals. The detailed curves are plotted and the surface area of the curve is calculated as described in the above reference.
(b) Influence of alpha-methyltyrosine
At time 0, the animals receive, by intraperitoneal administration, either distilled water or alphamethyltyrosine at a dose of 64 mg.kg^-1; after 150 minutes, they receive, by intraperitoneal administration, the medicament according to the invention, obtained in accordance with Example III, at a dose of 8 mg.kg^-1.
The animals are observed under the conditions described above in the study of the stereotypies in rats.

rats [3] = test: Influence of pimozide on the stereotypies caused in rats; type: in vivo; details: pimozide 1 mg.kg^-1 i.p. 30 min before Example III 8 mg.kg^-1 i.p.
Experimental: as §1
Research into the antagonistic effects of the stereotypies caused in rats by the medicament according to the invention
(a) Influence of pimozide
At time 0, pimozide (1 mg.kg^-1) or distilled water is administered intraperitoneally; after 30 minutes, all the animals receive, by intraperitoneal administration, the medicament according to the invention, obtained in accordance with Example III (8 mg.kg^-1). The stereotypies are assessed as described above. The surface area of the curve of the stereotypies is calculated.

mice [4] = test: Anti-reserpine activity in mice (reserpine hypothermia); type: in vivo; details: Table IIb, reserpine 2.5 mg.kg^-1 i.p. 4 h before
Experimental: Anti-reserpine activity in mice
At time 0, the mice receive reserpine (2.5 mg.kg^-1) by intraperitoneal administration.
After 4 hours, when the hypothermia is significant (30 to 31°C.), the substance to be studied is administered intraperitoneally or orally. The rectal temperature is measured, using a probe, carrying a thermoelectric couple, inserted to a constant depth, every 30 minutes for 2 hours.

[5] = Determination of the acute toxicity to mice (BEHRENS and KARBER); details: mouse, in vivo
Experimental: All the experiments reported below were carried out on male rats having a weight of between 170 and 220 g (Wistar AF strain) and male mice having a weight of between 18 and 23 g (Swiss NMRI strain), unless otherwise stated in the following text.
Determination of the acute toxicity to mice
Method used: BEHRENS and KARBER

mice [6] = test: Action on the toxicity of yohimbine to mice; type: in vivo; details: yohimbine hydrochloride 25 mg.kg^-1 s.c.
Experimental: Action on the toxicity of yohimbine to mice
At time 0, the mice receive, by oral administration, either distilled water or the medicament according to the invention; after 30 minutes, yohimbine hydrochloride (25 mg.kg^-1) is administered subcutaneously to the mice. The mortality is followed every hour for 4 hours and then recorded after 24 hours.

mice [7] = test: Anti-oxotremorine activity in mice (hypothermia induced by oxotremorine); type: in vivo; details: at the doses studied, oral or intraperitoneal
Experimental: Anti-oxotremorine activity in mice
At time 0, the mice receive oxotremorine (0.5 mg.kg^-1) by intraperitoneal administration; after 30 minutes, either distilled water or the medicament according to the invention, obtained in accordance with Example I, is administered to the mice intraperitoneally or orally.
The mice are then observed and the trembling is rated from 0 to 3 as a function of its intensity, every 10 minutes for 30 minutes. Moreover, the existence of peripheral symptoms (tears, hypersialosis and defections) is observed for 2 hours, in the presence or absence of trembling. The rectal temperature is measured every 30 minutes for 2 hours, after administration of oxotremorine.

rats [8] = test: Study of the stereotypies in rats; type: in vivo; details: rats
Experimental: Study of the stereotypies in rats
as §1

CC1CC(c2ccc(Cl)cc2)C(c2ccccc2)C(=O)O1 (stereo not drawn) [100% of β, Trans-4-(4'-chlorophenyl)-6-methyl-3phenyl-3,4,5,6-tetrahydropyrone-2, IIIβ]
activity compared with the mixture of 80 % of α and 20 % of β (mice [1]): more active

C[C@](N)(Cc1ccc(O)cc1)C(=O)O [alpha-methyltyrosine, reference compound]
effect of pre-treatment with alpha-methyltyrosine on the stereotypies caused by the medicament (rats [2]): virtually unmodified

O=c1[nH]c2ccccc2n1C1CCN(CCCC(c2ccc(F)cc2)c2ccc(F)cc2)CC1 [pimozide, reference compound]
effect of pimozide on the stereotypies caused by the medicament (rats [3]): very significantly antagonizes the stereotypies

CC(O)CC(c1ccc(Cl)cc1)C(C(=O)O)c1ccccc1 (centres unmarked) [product IV, sodium salt of 3-(4'-chlorophenyl)-5-hydroxy-2-phenylhexanoic acid]
Rectal temperatures °C. ± SD (mice [4]; 8 mg/kg oral, 30 min): 30.9 ± 0.36 °C | Rectal temperatures °C. ± SD (mice [4]; 8 mg/kg oral, 60 min): 32.0 ± 0.56 °C | Rectal temperatures °C. ± SD (mice [4]; 8 mg/kg oral, 90 min): 32.2 ± 0.57 °C | Rectal temperatures °C. ± SD (mice [4]; 8 mg/kg oral, 120 min): 33.2 ± 0.56 °C | Rectal temperatures °C. ± SD (mice [4]; 16 mg/kg oral, 30 min): 31.1 ± 0.39 °C | Rectal temperatures °C. ± SD (mice [4]; 16 mg/kg oral, 60 min): 32.5 ± 0.60 °C | Rectal temperatures °C. ± SD (mice [4]; 16 mg/kg oral, 90 min): 32.7 ± 0.51 °C | Rectal temperatures °C. ± SD (mice [4]; 16 mg/kg oral, 120 min): 33.1 ± 0.43 °C | Rectal temperatures °C. ± SD (mice [4]; 32 mg/kg oral, 30 min): 31.3 ± 0.31 °C | Rectal temperatures °C. ± SD (mice [4]; 32 mg/kg oral, 60 min): 33.0 ± 0.44 °C | Rectal temperatures °C. ± SD (mice [4]; 32 mg/kg oral, 90 min): 33.7 ± 0.41 °C | Rectal temperatures °C. ± SD (mice [4]; 32 mg/kg oral, 120 min): 33.2 ± 0.38 °C | Rectal temperatures °C. ± SD (mice [4]; 64 mg/kg oral, 30 min): 32.8 ± 0.40 °C | Rectal temperatures °C. ± SD (mice [4]; 64 mg/kg oral, 60 min): 34.3 ± 0.32 °C | Rectal temperatures °C. ± SD (mice [4]; 64 mg/kg oral, 90 min): 34.5 ± 0.38 °C | Rectal temperatures °C. ± SD (mice [4]; 64 mg/kg oral, 120 min): 34.4 ± 0.41 °C | LD50 ([5]; ip, intraperitoneal, read-out: LD50 (intraperitoneal administration)): 160 mg/kg | LD50 ([5]; oral, read-out: LD50 (oral administration)): 310 mg/kg | Mortality in % after the administration of yohimbine (mice [6]; Table Vb, 2 mg/kg administered orally, 4 hours): 10% | Mortality in % after the administration of yohimbine (mice [6]; Table Vb, 2 mg/kg administered orally, 24 hours): 10% | Mortality in % after the administration of yohimbine (mice [6]; Table Vb, 4 mg/kg administered orally, 4 hours): 20% | Mortality in % after the administration of yohimbine (mice [6]; Table Vb, 4 mg/kg administered orally, 24 hours): 20% | Mortality in % after the administration of yohimbine (mice [6]; Table Vb, 8 mg/kg administered orally, 4 hours): 30% | Mortality in % after the administration of yohimbine (mice [6]; Table Vb, 8 mg/kg administered orally, 24 hours): 30% | Mortality in % after the administration of yohimbine (mice [6]; Table Vb, 16 mg/kg administered orally, 4 hours): 70% | Mortality in % after the administration of yohimbine (mice [6]; Table Vb, 16 mg/kg administered orally, 24 hours): 70% | Mortality in % after the administration of yohimbine (mice [6]; Table Vb, 32 mg/kg administered orally, 4 hours): 80% | Mortality in % after the administration of yohimbine (mice [6]; Table Vb, 32 mg/kg administered orally, 24 hours): 80% | Mortality in % after the administration of yohimbine (mice [6]; Table Vb, 64 mg/kg administered orally, 4 hours): 100% | Mortality in % after the administration of yohimbine (mice [6]; Table Vb, 64 mg/kg administered orally, 24 hours): 100% | Mortality in % after the administration of yohimbine (mice [6]; Table Vb, 128 mg/kg administered orally, 4 hours): 80% | Mortality in % after the administration of yohimbine (mice [6]; Table Vb, 128 mg/kg administered orally, 24 hours): 80% | Mortality in % after the administration of yohimbine (mice [6]; Table Vb, 256 mg/kg administered orally, 4 hours): 100% | Mortality in % after the administration of yohimbine (mice [6]; Table Vb, 256 mg/kg administered orally, 24 hours): 100%

Threo-2-(4'-chlorophenyl)-4-hydroxy-1-phenylpentanecarbonitrile [Example II]
trembling and peripheral symptoms caused by oxotremorine (mice [7]): did not cause any modification | Mortality in % after the administration of yohimbine (mice [6]; Table Va, 2 mg/kg oral, 4 hours): 0% | Mortality in % after the administration of yohimbine (mice [6]; Table Va, 2 mg/kg oral, 24 hours): 0% | Mortality in % after the administration of yohimbine (mice [6]; Table Va, 4 mg/kg oral, 4 hours): 0% | Mortality in % after the administration of yohimbine (mice [6]; Table Va, 4 mg/kg oral, 24 hours): 0% | Mortality in % after the administration of yohimbine (mice [6]; Table Va, 8 mg/kg oral, 4 hours): 10% | Mortality in % after the administration of yohimbine (mice [6]; Table Va, 8 mg/kg oral, 24 hours): 10% | Mortality in % after the administration of yohimbine (mice [6]; Table Va, 16 mg/kg oral, 4 hours): 20% | Mortality in % after the administration of yohimbine (mice [6]; Table Va, 16 mg/kg oral, 24 hours): 20% | Mortality in % after the administration of yohimbine (mice [6]; Table Va, 32 mg/kg oral, 4 hours): 25% | Mortality in % after the administration of yohimbine (mice [6]; Table Va, 32 mg/kg oral, 24 hours): 25% | Mortality in % after the administration of yohimbine (mice [6]; Table Va, 64 mg/kg oral, 4 hours): 30% | Mortality in % after the administration of yohimbine (mice [6]; Table Va, 64 mg/kg oral, 24 hours): 30% | Mortality in % after the administration of yohimbine (mice [6]; Table Va, 128 mg/kg oral, 4 hours): 60% | Mortality in % after the administration of yohimbine (mice [6]; Table Va, 128 mg/kg oral, 24 hours): 60% | Mortality in % after the administration of yohimbine (mice [6]; Table Va, 256 mg/kg oral, 4 hours): 70% | Mortality in % after the administration of yohimbine (mice [6]; Table Va, 256 mg/kg oral, 24 hours): 70% | stereotypy activity, oral versus intraperitoneal administration (rats [8]; figure): slightly greater on oral administration | dose from which very significant stereotypies are present (rats [8]; mean surface area of the curve (figure)): ≥ 8 mg/kg
